In ChEMBL document CHEMBL1201862, “PubChem BioAssay data set” (2004):
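The compound was tested at five concentrations on cells cultured in 96-well plates, with a 48-hour exposure period. Here, GI50 denotes the concentration required for 50% inhibition of growth.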 Active and inactive are the calls of the source. Rule as the data show it: active = GI50 up to about 1.1 µM and inactive = higher. Square brackets hold non-standard residues; d marks the D form. Peptide text beside a SMILES is read from it. * marks the point of attachment. Phe(4-NO2) = N[CH](Cc1ccc([N+](=O)[O-])cc1)C(=O)O; Boc = CC(C)(C)OC(=O)*

Tests used:
Assay in all cases: NCI-60 cell line screen, 48 h
COLO 205 = system: COLO 205
DU-145 = system: DU-145
EKVX = system: EKVX
HCC 2998 = system: HCC 2998
HL-60 = system: HL-60
KM12 = system: KM12
M14 = system: M14
MCF7 = system: MCF7
Malme-3M = system: Malme-3M
NCI-H460 = system: NCI-H460
OVCAR-3 = system: OVCAR-3
OVCAR-4 = system: OVCAR-4
OVCAR-5 = system: OVCAR-5
PC-3 = system: PC-3
SK-MEL-2 = system: SK-MEL-2
SK-MEL-5 = system: SK-MEL-5
SR = system: SR
SW-620 = system: SW-620
NCI-H226 = system: NCI-H226

Row | Structure (SMILES) | GI50 (COLO 205) | GI50 (DU-145) | GI50 (EKVX) | GI50 (HCC 2998) | GI50 (HL-60) | GI50 (KM12) | GI50 (M14) | GI50 (MCF7) | GI50 (Malme-3M) | GI50 (NCI-H460) | GI50 (OVCAR-3) | GI50 (OVCAR-4) | GI50 (OVCAR-5) | GI50 (PC-3) | GI50 (SK-MEL-2) | GI50 (SK-MEL-5) | GI50 (SR) | GI50 (SW-620) | GI50 (NCI-H226)
1 | CCO[C@]12CCC[C@H]1[C@@H]1C(=O)c3ccccc3C(=O)C1=C(C)O2 | > 100 µM (inactive) | 58.1 µM (inactive) | > 100 µM (inactive) | > 100 µM (inactive) | 41.7 µM (inactive) | > 100 µM (inactive) | 34.3 µM (inactive) | 17 µM (inactive) | > 100 µM (inactive) | > 100 µM (inactive) | 22 µM (inactive) | 26.3 µM (inactive) | > 100 µM (inactive) | > 100 µM (inactive) | > 100 µM (inactive) | 33.7 µM (inactive) | 22.3 µM (inactive) | 37.2 µM (inactive) | –
2 | O=C(Oc1c(I)ccccc1=O)c1ccc([N+](=O)[O-])cc1 | 14.7 µM (inactive) | 11.7 µM (inactive) | 12.4 µM (inactive) | 23.2 µM (inactive) | 18.2 µM (inactive) | 18.9 µM (inactive) | 26.2 µM (inactive) | 17.2 µM (inactive) | 14.6 µM (inactive) | 11.4 µM (inactive) | 13.6 µM (inactive) | – | 35.5 µM (inactive) | 27.4 µM (inactive) | 20.5 µM (inactive) | 0.51 µM (active) | 4.34 µM (inactive) | 30.1 µM (inactive) | –
3 | CCN(CC)Cc1cc(Nc2ccnc3ccc4c(nnn4C)c23)ccc1O | 6.7 µM (inactive) | 13.3 µM (inactive) | 26.7 µM (inactive) | 1.75 µM (inactive) | 9.89 µM (inactive) | 14.9 µM (inactive) | 15.3 µM (inactive) | 4.03 µM (inactive) | 13 µM (inactive) | 3.42 µM (inactive) | 19.3 µM (inactive) | 7.6 µM (inactive) | 11.1 µM (inactive) | 6.82 µM (inactive) | 16.1 µM (inactive) | 12.7 µM (inactive) | 4.13 µM (inactive) | – | –
4 | C=C1c2cc3c(cc2CC12Cc1cc4c(cc1C2=O)CCC4)CCC3 (configuration not stated) | – | > 100 µM (inactive) | > 100 µM (inactive) | > 100 µM (inactive) | > 100 µM (inactive) | – | > 100 µM (inactive) | > 100 µM (inactive) | > 100 µM (inactive) | > 100 µM (inactive) | > 100 µM (inactive) | > 100 µM (inactive) | > 100 µM (inactive) | > 100 µM (inactive) | > 100 µM (inactive) | > 100 µM (inactive) | 36.1 µM (inactive) | > 100 µM (inactive) | –
5 | Nc1ccccc1C(=O)CCc1c[nH]c2ccccc12 | – | > 100 µM (inactive) | 48.3 µM (inactive) | > 100 µM (inactive) | > 100 µM (inactive) | > 100 µM (inactive) | > 100 µM (inactive) | > 100 µM (inactive) | > 100 µM (inactive) | > 100 µM (inactive) | > 100 µM (inactive) | 20.3 µM (inactive) | > 100 µM (inactive) | > 100 µM (inactive) | > 100 µM (inactive) | – | > 100 µM (inactive) | > 100 µM (inactive) | > 100 µM (inactive)
6 | CCOC(=O)C(=CNC(=S)N/N=C1\C(=O)Nc2ccccc21)C(=O)OCC | 99.1 µM (inactive) | > 100 µM (inactive) | – | > 100 µM (inactive) | 31 µM (inactive) | 52 µM (inactive) | > 100 µM (inactive) | 92.9 µM (inactive) | – | 47.8 µM (inactive) | 46.2 µM (inactive) | > 100 µM (inactive) | > 100 µM (inactive) | > 100 µM (inactive) | > 100 µM (inactive) | 90.8 µM (inactive) | 69.3 µM (inactive) | > 100 µM (inactive) | > 100 µM (inactive)
7 | NC(=O)NC(=O)c1cccc(NC(=O)CI)c1 | < 0.01 µM (active) | 0.0344 µM (active) | 0.863 µM (active) | 0.228 µM (active) | < 0.01 µM (active) | 0.0391 µM (active) | – | < 0.01 µM (active) | – | 0.0485 µM (active) | < 0.01 µM (active) | 0.148 µM (active) | 0.151 µM (active) | 0.0316 µM (active) | 0.0361 µM (active) | < 0.0105 µM (active) | < 0.01 µM (active) | < 0.01 µM (active) | < 0.0367 µM (active)
8 | CNC(=O)CCC(NC(=O)OC(C)(C)C)C(=O)NC(Cc1ccc([N+](=O)[O-])cc1)C(=O)NCC(=O)NC (configuration not stated) (Boc-Glu(NHMe)-[Phe(4-NO2)]-Gly-NHMe; configuration not given here) | > 100 µM (inactive) | > 100 µM (inactive) | > 100 µM (inactive) | > 100 µM (inactive) | > 100 µM (inactive) | > 100 µM (inactive) | > 100 µM (inactive) | > 100 µM (inactive) | > 100 µM (inactive) | > 100 µM (inactive) | > 100 µM (inactive) | > 100 µM (inactive) | > 100 µM (inactive) | > 100 µM (inactive) | – | > 100 µM (inactive) | > 100 µM (inactive) | > 100 µM (inactive) | > 100 µM (inactive)
